Source: the NIST ThermoML archive (doi:10.1016/j.fluid.2015.07.012)

Test: xn = mol fraction of the nth substance listed
Conditions: Liquid; for viscosity: Capillary tube (Ostwald / Ubbelohde) method; for mass density: Vibrating tube method

CO [methanol] + O
Conditions | mass density, 10000 kPa [kg/m3] | mass density, 20000 kPa [kg/m3] | mass density, 30000 kPa [kg/m3] | mass density, 40000 kPa [kg/m3] | viscosity, 10000 kPa [mPa·s] | viscosity, 20000 kPa [mPa·s] | viscosity, 30000 kPa [mPa·s] | viscosity, 40000 kPa [mPa·s]
350.7 K, x1 = 0.1 | 945.55 | 949.82 | 954.11 | 958.39 | 0.448 | 0.454 | 0.458 | 0.473
350.7 K, x1 = 0.2 | 917.41 | 921.49 | 927.03 | 931.54 | 0.503 | 0.514 | 0.526 | 0.543
350.7 K, x1 = 0.3 | 889.97 | 895.56 | 901.14 | 906.05 | 0.514 | 0.528 | 0.542 | 0.558
350.7 K, x1 = 0.4 | 865.13 | 870.55 | 876.99 | 882.71 | 0.512 | 0.529 | 0.544 | 0.565
350.7 K, x1 = 0.6 | 819.84 | 827.75 | 835.46 | 842.38 | 0.449 | 0.47 | 0.494 | 0.519
350.7 K, x1 = 0.8 | 780.91 | 789.25 | 797.6 | 805.96 | 0.379 | 0.4 | 0.416 | 0.443
350.7 K, x1 = 1 | – | – | – | – | 0.298 | 0.313 | 0.331 | 0.351
373.2 K, x1 = 0.1 | 928.71 | 932.78 | 939.53 | 943.52 | 0.33 | 0.337 | 0.339 | 0.347
373.2 K, x1 = 0.2 | 900.41 | 904.78 | 911.46 | 914.74 | 0.358 | 0.368 | 0.372 | 0.382
373.2 K, x1 = 0.3 | 870.61 | 877.31 | 883.51 | 889.33 | 0.364 | 0.378 | 0.385 | 0.398
373.2 K, x1 = 0.4 | 845.4 | 851.97 | 858.91 | 864.81 | 0.36 | 0.375 | 0.382 | 0.399
373.2 K, x1 = 0.6 | 799.33 | 807.98 | 817.6 | 823.64 | 0.324 | 0.342 | 0.353 | 0.368
373.2 K, x1 = 0.8 | 758.8 | 770.24 | 780.53 | 789.08 | 0.276 | 0.294 | 0.307 | 0.326
373.2 K, x1 = 1 | 725.29 | 737.85 | 748.83 | 758.66 | 0.227 | 0.25 | 0.259 | 0.275
476.2 K, x1 = 0.1 | 822.65 | 831.4 | 838.61 | 845.82 | 0.141 | 0.144 | 0.148 | 0.151
476.2 K, x1 = 0.2 | 781.47 | 792.25 | 802.47 | 810.27 | 0.14 | 0.143 | 0.15 | 0.152
476.2 K, x1 = 0.3 | 746.74 | 760.72 | 772.18 | 780.67 | 0.136 | 0.144 | 0.146 | 0.152
476.2 K, x1 = 0.4 | 714.67 | 730.97 | 744.11 | 754.89 | 0.129 | 0.138 | 0.144 | 0.149
476.2 K, x1 = 0.6 | 664.45 | 685.36 | 703.08 | 715.13 | 0.115 | 0.123 | 0.131 | 0.14
476.2 K, x1 = 0.8 | 617.54 | 647.18 | 668.6 | 683.43 | 0.101 | 0.113 | 0.122 | 0.129
476.2 K, x1 = 1 | 576.84 | 612.56 | 636.82 | 655.67 | 0.088 | 0.1 | 0.109 | 0.116
